Data reported in paper PMC7284870, “Antimicrobial Peptides from Rat-Tailed Maggots of the Drone Fly Eristalis tenax Show Potent Activity against Multidrug-Resistant Gram-Negative Bacteria” (Microorganisms, 2020).
Several values for one entry are separate records, joined by “and”; a condition that tells them apart may be missing. Equal values may be shown once. Read-outs that look alike come from different tables or passages of the source. No end group written: not given here.

Legend:
E. coli ATCC 25922 = test system: E. coli ATCC 25922
In short: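 MIC was determined by broth microdilution in cation-adjusted Mueller–Hinton broth at 5 × 10^5 cells/mL. Peptides were tested at 1024–0.03125 µg/mL final, with 18 h incubation at 37 °C with shaking. Growth was scored visually and by OD600. Medium was supplemented with 150 mM NaCl or 1.25 mM CaCl2.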

A. baumannii RKI 19/09 = experiment: microbe, parasite or virus in culture; type: cell-based, Acinetobacter baumannii
Protocol: The strains that were used in this study (Table 2 and Table S1) were cultivated at 37 °C in cation-adjusted Mueller–Hinton broth (CAMB) in Erlenmeyer flasks, or on the same medium with agar in Petri dishes. Exceptionally, Mycobacterium smegmatis was cultivated at 37 °C in brain heart infusion (BHI) medium that was supplemented with 1% Tween-80 in Erlenmeyer flasks, or on the same medium lacking detergent but with agar in Petri dishes. Strains listed with Robert Koch Institute (RKI) strain numbers are clinical isolates from the RKI strain collection originating from hospitalized patients in Germany. The remaining strains originated from the Sanofi strain collection and they were originally purchased from the American Type Culture Collection or the German Collection of Microorganisms and Cell Cultures. Meropenem/colistin-resistant strains were maintained, as described above, with the appropriate antibiotic added at levels below the minimal inhibitory concentration (MIC).
The MIC values were determined in 384-well microtiter plates with an assay volume of 20 µL. Immediately before each assay, the cultures of test organisms (bacteria grown for 18 h, Candida albicans and M. smegmatis grown for 48 h) were diluted with the appropriate medium to a density of 1 × 10^6 cells/mL (C. albicans), 1 × 10^5 cells/mL (M. smegmatis) or 5 × 10^5 cells per mL (other species). […] We transferred 2-µL aliquots from this dilution series to new 384-well microtiter plates while using a CyBio-Well 384-channel automated pipettor (Analytic Jena, Jena, Germany) and added 18 µL of the diluted suspension of each test species using a Viafill reagent dispenser (Integra), thus reducing the final peptide concentration 10-fold to the range 1024–0.03125 µg/mL. […] The growth of M. smegmatis was measured using the BacTiter-Glo luminescence test system (Promega, Madison, WI, USA). The growth of the other species was determined by visual inspection of the microtiter plate and turbidimetry based on the optical density at 600 nm (OD600). The MIC was defined as the peptide concentration at which no bacterial growth was observed. We supplemented the test medium with either 150 mM NaCl or 1.25 mM CaCl2 to represent monovalent and divalent cations to simulate physiological conditions.

[1] = Metabolic stability in human hepatocytes; type: in vitro ADME; conditions: cryopreserved human hepatocytes in suspension, 0.5 × 10^6 cells/mL, 1 µM peptide
Protocol: The metabolic stability of the E. tenax peptides was assessed by determining the intrinsic clearance while using cryopreserved human hepatocytes in suspension culture in a volume of 60 µL with a seeding densitiy of 0.5 × 10^6 hepatocytes/mL. The peptides were added at a concentration of 1 µM (4.14, 4.28, and 6.65 µg/mL for EtCec1-a, EtCec2-a, and EtDip, respectively). Scaled hepatic clearance for human was calculated based on a weight of 25.71 g liver/kg and a hepatocellularity of 99 × 10^6 cells/g liver.

S. aureus ATCC 33592 = type: cell-based, Staphylococcus aureus
In short: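 Broth microdilution in cation-adjusted Mueller–Hinton broth, inoculum 5 × 10^5 cells/mL from 18 h cultures; final peptide range 1024–0.03125 µg/mL, medium supplemented with 150 mM NaCl or 1.25 mM CaCl2. Growth scored visually and by OD600; MIC = lowest concentration without growth.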

Plasma stability = type: in vitro ADME; conditions: 37 °C, LC-MS, triplicate; for remaining at 24 h, 5 µM: after 24 h, read-out: peptide remaining in plasma; for hydrolysis in plasma: 5 µM
Protocol: EtCec1-a, EtCec2-a, and EtDip were dissolved as 1 mM stock solutions in sterile deionized water and then incubated in 500 µL plasma from different species (human, mouse and rat) to a final concentration of 5 µM (20.7, 21.4, and 33.3 µg/mL for EtCec1-a, EtCec2-a, and EtDip, respectively) at 37 °C. At different time points (0, 1, 4, and 24 h), 100-µL samples were transferred to 500 µL ethanol containing 0.5% (v/v) NH3, and the plasma proteins were precipitated by centrifugation for 20 min. at 1735× g. EtCec1-a, EtCec2-a, and EtDip (10 µL injection volume) were analyzed in triplicate by LC-MS, and their stability was evaluated by comparing samples of with plasma incubated timepoints (t1, t4, t24) to untreated samples (t0). The peptides were separated on an AERIS Peptide 3.6-µm XB-C18 50 × 2.1 mm column (Phenomenex, Torrance, CA, USA) with an ascending acetonitrile gradient in water (that was supplemented with 0.1% formic acid) at a flow rate of 500 µL/min.

[2] = CAMB + 0.075 µg/mL colistin (Col), n=3
[3] = CAMB + A000173039A [0.25 µg/mL]
[4] = CAMB + A000499933A [0.0625 µg/mL]
[5] = CAMB + A000500059A [0.0625 µg/mL]
[6] = CAMB + A000500146A [0.0625 µg/mL]
[7] = CAMB + Colistin E1 [0.016 µg/mL]
[8] = CAMB + Colistin E2 [0.016 µg/mL]
[9] = CAMB adjusted to 150 mM NaCl, n=3

## GFLKKIGKKLEGAVQRTRDATIQTIAVAQAAANVAATAKQ-NH2 [EtCec1-NH2]
E. coli ATCC 25922; ATCC 25922, 18 h
  MIC: 8 µg/mL
A. baumannii RKI 19/09; RKI 19/09, 18 h
  MIC: 4 µg/mL
[1]
  half-life: > 3.33 h
  half-life at 1 µM: 7.13 h
S. aureus ATCC 33592; ATCC 33592, 18 h
  MIC: >1024 µg/mL
Plasma stability; human plasma
  remaining at 24 h, 5 µM: 48%
Plasma stability; mouse plasma, within 24 h
  hydrolysis in plasma: completely hydrolyzed
Plasma stability; rat plasma, within 24 h
  hydrolysis in plasma: completely hydrolyzed

## QFNMQGGGSPRQGFDVNANARFPIWQSQNARNSVHGTASYAQHLGGPYGNSRPNFGGGLQFT [EtDip, diptericin-like peptide of Eristalis tenax]
E. coli ATCC 25922; [2]
  MIC: 4 µg/mL
E. coli ATCC 25922; CAMB + A000160918 [4 µg/mL]
  MIC: >256 µg/mL
E. coli ATCC 25922; CAMB + A000161246 [4 µg/mL]
  MIC: >256 µg/mL
E. coli ATCC 25922; CAMB + A000173031A [4 µg/mL]
  MIC: >256 µg/mL
E. coli ATCC 25922; CAMB + A000173033A [4 µg/mL]
  MIC: >256 µg/mL
E. coli ATCC 25922; [3]
  MIC: >256 µg/mL
E. coli ATCC 25922; CAMB + A000173380A [4 µg/mL]
  MIC: >256 µg/mL
E. coli ATCC 25922; CAMB + A000498432A [4 µg/mL]
  MIC: >256 µg/mL
E. coli ATCC 25922; [4]
  MIC: >256 µg/mL
E. coli ATCC 25922; [5]
  MIC: >256 µg/mL
E. coli ATCC 25922; [6]
  MIC: 4 µg/mL
E. coli ATCC 25922; CAMB + A000501181A [4 µg/mL]
  MIC: >256 µg/mL
E. coli ATCC 25922; [7]
  MIC: >256 µg/mL
E. coli ATCC 25922; [8]
  MIC: 2 µg/mL
E. coli ATCC 25922; CAMB + PMB [0.016 µg/mL]
  MIC: 2 µg/mL
E. coli ATCC 25922; CAMB + PMBN [4 µg/mL]
  MIC: >256 µg/mL
E. coli ATCC 25922; CAMB, 18 h, 37 °C, n = 4
  MIC: >1024 µg/mL
E. coli ATCC 25922; Table 5, CAMB, n=3
  MIC: >1024 µg/mL
E. coli ATCC 25922; Table 6, CAMB
  MIC: >256 µg/mL
A. baumannii RKI 19/09; [2]
  MIC: 1024 µg/mL
A. baumannii RKI 19/09; Table 5, CAMB, n=3
  MIC: >1024 µg/mL
[1]
  half-life: 5.75 h and > 3.33 h
S. aureus ATCC 33592; CAMB, 18 h, 37 °C, n = 4
  MIC: >1024 µg/mL
Plasma stability; human plasma, after 1 h
  hydrolysis in plasma: ≥ 83%
Plasma stability; mouse plasma, after 1 h
  hydrolysis in plasma: ≥ 83%
Plasma stability; rat plasma, after 1 h
  hydrolysis in plasma: ≥ 83%

## GWLRDFGKRIERTGQNIRDATIQTIGIAQEAANVAATLK-NH2 [EtCec2-NH2]
E. coli ATCC 25922; [2]
  MIC: 4 µg/mL
E. coli ATCC 25922; CAMB + A000160918 [4 µg/mL]
  MIC: >256 µg/mL
E. coli ATCC 25922; CAMB + A000161246 [4 µg/mL]
  MIC: >256 µg/mL
E. coli ATCC 25922; CAMB + A000173031A [4 µg/mL]
  MIC: >256 µg/mL
E. coli ATCC 25922; CAMB + A000173033A [4 µg/mL]
  MIC: >256 µg/mL
E. coli ATCC 25922; [3]
  MIC: >256 µg/mL
E. coli ATCC 25922; CAMB + A000173380A [4 µg/mL]
  MIC: >256 µg/mL
E. coli ATCC 25922; CAMB + A000498432A [4 µg/mL]
  MIC: >256 µg/mL
E. coli ATCC 25922; [4]
  MIC: 128 µg/mL
E. coli ATCC 25922; [5]
  MIC: 256 µg/mL
E. coli ATCC 25922; [6]
  MIC: 4 µg/mL
E. coli ATCC 25922; CAMB + A000501181A [4 µg/mL]
  MIC: 256 µg/mL
E. coli ATCC 25922; [7]
  MIC: 4 µg/mL
E. coli ATCC 25922; [8]
  MIC: 2 µg/mL
E. coli ATCC 25922; CAMB + PMB [0.016 µg/mL]
  MIC: 2 µg/mL
E. coli ATCC 25922; CAMB + PMBN [4 µg/mL]
  MIC: >256 µg/mL
E. coli ATCC 25922; [9]
  MIC: 32 µg/mL
E. coli ATCC 25922; CAMB, 18 h, 37 °C, n = 4
  MIC: 32 µg/mL
E. coli ATCC 25922; Table 4, CAMB, n=3
  MIC: 32 µg/mL
E. coli ATCC 25922; Table 6, CAMB
  MIC: 32 µg/mL
A. baumannii RKI 19/09; [2]
  MIC: 8 µg/mL
A. baumannii RKI 19/09; [9]
  MIC: 16 µg/mL
A. baumannii RKI 19/09; Table 4, CAMB, n=3
  MIC: 8 µg/mL
[1]
  half-life: > 3.33 h
  half-life at 1 µM: 3.43 h
S. aureus ATCC 33592; CAMB, 18 h, 37 °C, n = 4
  MIC: >1024 µg/mL
Plasma stability; human plasma
  remaining at 24 h, 5 µM: 22%
Plasma stability; mouse plasma, within 24 h
  hydrolysis in plasma: completely hydrolyzed
Plasma stability; rat plasma, within 24 h
  hydrolysis in plasma: completely hydrolyzed

## C[C@@H](O)[C@H]1C(=O)N2C(C(=O)O)=C(S[C@@H]3CN[C@H](C(=O)N(C)C)C3)[C@H](C)[C@H]12 [MEM, meropenem]
A. baumannii RKI 19/09; Acinetobacter baumannii, RKI19/09, Table S1, RKI 19/09, read-out: MIC
  MIC: > 64 µg/mL
